The source made the active and inactive calls. No cut-off for these calls is given here.
What was measured:
Influenza A virus [1] = assay: Antiviral activity against influenza A virus A/WSN/33(H1N1) infected in MDCK cells assessed as reduction in M2 expression measured upto 2 hrs by time of addition assay; format: functional; set-up: scale not given: the % may be the effect or the level left
Influenza A virus [2] = assay: Antiviral activity against influenza A virus B/Sichuan/531/2018 (Victoria) infected in MDCK cells assessed as inhibition of viral growth; format: functional, organism-based
[3] = Cytotoxicity against dog MDCK cells assessed as cell viability at 30 uM incubated for 48 hrs by celltiter-glo assay; format: toxicity, cell-based, Canis lupus familiaris; conditions: read-out: Activity
[4] = Selectivity index, ratio of CC50 for cytotoxicity against dog MDCK cells assessed as reduction in cell viability to IC50 for antiviral activity against influenza A virus A/WSN/33(H1N1) infected in MDCK cells assessed as inhibition of viral-induced cytopathic effect; format: toxicity, cell-based; conditions: read-out: Ratio CC50/IC50
[5] = Selectivity index, ratio of CC50 for cytotoxicity against dog MDCK cells assessed as reduction in cell viability to IC50 for antiviral activity against influenza A virus B/Sichuan/531/2018 (Victoria) infected in MDCK cells assessed as inhibition of viral growth; format: toxicity, cell-based; conditions: read-out: Ratio CC50/IC50
[6] = Cytotoxicity against dog MDCK cells assessed as reduction in cell viability incubated for 48 hrs by celltiter-glo assay; format: toxicity, cell-based, Canis lupus familiaris
Erythrocyte [7] = assay: Inhibition of hemagglutination in chicken RBC cells infected with Influenza A virus A/WSN/33 (H1N1) assessed as reduction in virus-induced agglutination of erythrocytes at 0.24 to 15 uM incubated for 24 mins; format: functional, cell-based; conditions: Gallus gallus, dose 0.24-15 µM
Influenza A virus [8] = assay: Antiviral activity against influenza A virus B/Darwin/58/2019 (Yamagata) infected in MDCK cells assessed as inhibition of viral growth; format: functional, organism-based
[9] = Selectivity index, ratio of CC50 for cytotoxicity against dog MDCK cells assessed as reduction in cell viability to IC50 for antiviral activity against influenza A virus B/Darwin/58/2019 (Yamagata) infected in MDCK cells assessed as inhibition of viral growth; format: toxicity, cell-based; conditions: read-out: Ratio CC50/IC50
Erythrocyte [10] = assay: Hemolytic activity in rabbit RBC assessed as hemolysis at 300 uM incubated for 2 hr by spectrophotometry analysis; format: toxicity, cell-based, Oryctolagus cuniculus
Influenza A virus [11] = assay: Antiviral activity against influenza A virus A/WSN/33(H1N1) infected in MDCK cells assessed as inhibition of viral-induced cytopathic effect incubated for 48 hrs by microscopic analysis; format: functional, organism-based
Influenza A virus [12] = assay: Antiviral activity against influenza A virus A/WSN/33(H1N1) infected in MDCK cells assessed as inhibition of viral growth at 30 uM incubated for 48 hrs by microscopic analysis; format: functional; set-up: scale not given: the % may be the effect or the level left
[13] = Binding affinity to influenza A virus H1N1 (A/michigan/45/2015) assessed as dissociation constant by SPR analysis
Influenza A virus [14] = assay: Antiviral activity against influenza A virus A/WSN/33(H1N1) infected in MDCK cells assessed as inhibition of virus-induced cytopathic effect at 30 uM incubated for 48 hrs by microscopic analysis; format: functional, organism-based

Row | Structure (SMILES) | Activity (Influenza A virus [1]) | IC50 (Influenza A virus [2]) | viability at 48 h, 30 µM [3] | selectivity ratio [4] | selectivity ratio [5] | CC50 at 48 h [6] | inhibition (Erythrocyte [7]) | IC50 (Influenza A virus [8]) | selectivity ratio [9] | Activity (Erythrocyte [10]) | IC50 (Influenza A virus [11]) | Activity (Influenza A virus [12]) | Kd [13] | Activity (Influenza A virus [14])
1 | CC1(C)CC[C@]2(C(=O)NCCOCCn3cc(COc4cc(C(=O)NCCNC(=O)OCCn5cc(COc6cc(OCc7cn(CCOC(=O)NCCNC(=O)c8cc(OCc9cn(CCOCCNC(=O)[C@]%10%11CCC(C)(C)C[C@H]%10C%10=CC[C@@H]%12[C@@]%13(C)CC[C@H](O)C(C)(C)[C@@H]%13CC[C@@]%12(C)[C@]%10(C)CC%11)nn9)c(OCc9cn(CCOCCNC(=O)[C@]%10%11CCC(C)(C)C[C@H]%10C%10=CC[C@@H]%12[C@@]%13(C)CC[C@H](O)C(C)(C)[C@@H]%13CC[C@@]%12(C)[C@]%10(C)CC%11)nn9)c(OCc9cn(CCOCCNC(=O)[C@]%10%11CCC(C)(C)C[C@H]%10C%10=CC[C@@H]%12[C@@]%13(C)CC[C@H](O)C(C)(C)[C@@H]%13CC[C@@]%12(C)[C@]%10(C)CC%11)nn9)c8)nn7)cc(OCc7cn(CCOC(=O)NCCNC(=O)c8cc(OCc9cn(CCOCCNC(=O)[C@]%10%11CCC(C)(C)C[C@H]%10C%10=CC[C@@H]%12[C@@]%13(C)CC[C@H](O)C(C)(C)[C@@H]%13CC[C@@]%12(C)[C@]%10(C)CC%11)nn9)c(OCc9cn(CCOCCNC(=O)[C@]%10%11CCC(C)(C)C[C@H]%10C%10=CC[C@@H]%12[C@@]%13(C)CC[C@H](O)C(C)(C)[C@@H]%13CC[C@@]%12(C)[C@]%10(C)CC%11)nn9)c(OCc9cn(CCOCCNC(=O)[C@]%10%11CCC(C)(C)C[C@H]%10C%10=CC[C@@H]%12[C@@]%13(C)CC[C@H](O)C(C)(C)[C@@H]%13CC[C@@]%12(C)[C@]%10(C)CC%11)nn9)c8)nn7)c6)nn5)cc(OCc5cn(CCOCCNC(=O)[C@]67CCC(C)(C)C[C@H]6C6=CC[C@@H]8[C@@]9(C)CC[C@H](O)C(C)(C)[C@@H]9CC[C@@]8(C)[C@]6(C)CC7)nn5)c4OCc4cn(CCOCCNC(=O)[C@]56CCC(C)(C)C[C@H]5C5=CC[C@@H]7[C@@]8(C)CC[C@H](O)C(C)(C)[C@@H]8CC[C@@]7(C)[C@]5(C)CC6)nn4)nn3)CC[C@]3(C)C(=CC[C@@H]4[C@@]5(C)CC[C@H](O)C(C)(C)[C@@H]5CC[C@]43C)[C@@H]2C1 | >90% | 27.2 µM | 96.5% | > 3.78 | > 1.1 | > 30 µM | Active | 9.38 µM | > 3.2 | Non-Toxic | 7.93 µM | 100% | – | –
2 | CC1(C)CC[C@]2(C(=O)NCCOCCOCCOCCn3cc(COc4cc(C(=O)NCCOCCOCCOCCn5cc(COc6cc(OCc7cn(CCOCCOCCOCCNC(=O)c8cc(OCc9cn(CCOCCOCCOCCNC(=O)[C@]%10%11CCC(C)(C)C[C@H]%10C%10=CC[C@@H]%12[C@@]%13(C)CC[C@H](O)C(C)(C)[C@@H]%13CC[C@@]%12(C)[C@]%10(C)CC%11)nn9)c(OCc9cn(CCOCCOCCOCCNC(=O)[C@]%10%11CCC(C)(C)C[C@H]%10C%10=CC[C@@H]%12[C@@]%13(C)CC[C@H](O)C(C)(C)[C@@H]%13CC[C@@]%12(C)[C@]%10(C)CC%11)nn9)c(OCc9cn(CCOCCOCCOCCNC(=O)[C@]%10%11CCC(C)(C)C[C@H]%10C%10=CC[C@@H]%12[C@@]%13(C)CC[C@H](O)C(C)(C)[C@@H]%13CC[C@@]%12(C)[C@]%10(C)CC%11)nn9)c8)nn7)cc(OCc7cn(CCOCCOCCOCCNC(=O)c8cc(OCc9cn(CCOCCOCCOCCNC(=O)[C@]%10%11CCC(C)(C)C[C@H]%10C%10=CC[C@@H]%12[C@@]%13(C)CC[C@H](O)C(C)(C)[C@@H]%13CC[C@@]%12(C)[C@]%10(C)CC%11)nn9)c(OCc9cn(CCOCCOCCOCCNC(=O)[C@]%10%11CCC(C)(C)C[C@H]%10C%10=CC[C@@H]%12[C@@]%13(C)CC[C@H](O)C(C)(C)[C@@H]%13CC[C@@]%12(C)[C@]%10(C)CC%11)nn9)c(OCc9cn(CCOCCOCCOCCNC(=O)[C@]%10%11CCC(C)(C)C[C@H]%10C%10=CC[C@@H]%12[C@@]%13(C)CC[C@H](O)C(C)(C)[C@@H]%13CC[C@@]%12(C)[C@]%10(C)CC%11)nn9)c8)nn7)c6)nn5)cc(OCc5cn(CCOCCOCCOCCNC(=O)[C@]67CCC(C)(C)C[C@H]6C6=CC[C@@H]8[C@@]9(C)CC[C@H](O)C(C)(C)[C@@H]9CC[C@@]8(C)[C@]6(C)CC7)nn5)c4OCc4cn(CCOCCOCCOCCNC(=O)[C@]56CCC(C)(C)C[C@H]5C5=CC[C@@H]7[C@@]8(C)CC[C@H](O)C(C)(C)[C@@H]8CC[C@@]7(C)[C@]5(C)CC6)nn4)nn3)CC[C@]3(C)C(=CC[C@@H]4[C@@]5(C)CC[C@H](O)C(C)(C)[C@@H]5CC[C@]43C)[C@@H]2C1 | >90% | 33.5 µM | 100% | > 5.74 | > 0.9 | > 30 µM | Active | – | – | – | 5.23 µM | 76.88% | 12.9 µM | Active
